Assay results: ChEMBL document CHEMBL1143532 (Bioorg Med Chem Lett, 2005)

Assays:
[1] = target: T1, Neuronal acetylcholine receptor subunit alpha-7 (Rattus norvegicus, UniProt Q05941); test: Inhibitory constant against [3H]methyllycaconitine binding towards Nicotinic acetylcholine receptor alpha-7 of rat brain hippocampus; type: tissue-based
[2] = target: Neuronal acetylcholine receptor; alpha4/beta2 (Homo sapiens, UniProt P17787+P43681); test: Binding affinity towards Nicotinic acetylcholine receptor alpha4-beta2; Not significant; type: protein complex
Sequence of Neuronal acetylcholine receptor; alpha4/beta2 (P17787 whole entry): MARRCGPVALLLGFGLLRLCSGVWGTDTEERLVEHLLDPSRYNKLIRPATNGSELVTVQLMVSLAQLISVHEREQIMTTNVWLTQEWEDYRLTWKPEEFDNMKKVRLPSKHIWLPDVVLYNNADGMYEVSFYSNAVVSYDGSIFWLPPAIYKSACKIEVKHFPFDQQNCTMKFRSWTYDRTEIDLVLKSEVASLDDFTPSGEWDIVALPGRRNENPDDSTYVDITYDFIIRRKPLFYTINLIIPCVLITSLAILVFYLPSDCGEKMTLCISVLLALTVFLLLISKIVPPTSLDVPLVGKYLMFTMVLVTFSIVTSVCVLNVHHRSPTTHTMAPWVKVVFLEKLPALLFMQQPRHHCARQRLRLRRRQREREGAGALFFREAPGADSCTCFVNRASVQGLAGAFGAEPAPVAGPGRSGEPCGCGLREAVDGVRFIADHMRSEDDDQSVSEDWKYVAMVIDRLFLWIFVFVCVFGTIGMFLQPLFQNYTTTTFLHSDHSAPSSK
Sequence of Neuronal acetylcholine receptor; alpha4/beta2 (P43681 whole entry): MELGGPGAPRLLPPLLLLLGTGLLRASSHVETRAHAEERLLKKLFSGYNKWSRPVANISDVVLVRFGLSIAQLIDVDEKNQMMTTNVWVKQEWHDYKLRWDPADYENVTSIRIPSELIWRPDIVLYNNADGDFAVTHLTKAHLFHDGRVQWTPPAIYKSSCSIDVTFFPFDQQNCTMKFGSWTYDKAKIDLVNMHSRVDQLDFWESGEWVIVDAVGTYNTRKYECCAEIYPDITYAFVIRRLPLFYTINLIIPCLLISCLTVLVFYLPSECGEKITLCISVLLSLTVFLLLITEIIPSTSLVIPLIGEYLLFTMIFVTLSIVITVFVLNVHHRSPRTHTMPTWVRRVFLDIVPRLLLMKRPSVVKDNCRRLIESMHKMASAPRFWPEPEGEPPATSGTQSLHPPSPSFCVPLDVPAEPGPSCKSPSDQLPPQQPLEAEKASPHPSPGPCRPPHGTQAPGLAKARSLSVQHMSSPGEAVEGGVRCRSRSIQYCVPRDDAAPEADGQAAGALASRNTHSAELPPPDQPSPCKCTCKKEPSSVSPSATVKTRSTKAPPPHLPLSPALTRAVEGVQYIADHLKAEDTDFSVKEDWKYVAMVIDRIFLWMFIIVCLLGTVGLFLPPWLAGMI

[3] = target: Neuronal acetylcholine receptor subunit alpha-7 (Rattus norvegicus) (UniProt Q05941); test: Intrinsic activity against rat nicotinic acetylcholine alpha-7 subunit expressed in Xenopus oocytes as current activation; type: functional, cell-based; conditions: Oocyte
Sequence of Neuronal acetylcholine receptor subunit alpha-7 (Rattus norvegicus) (Q05941 whole entry): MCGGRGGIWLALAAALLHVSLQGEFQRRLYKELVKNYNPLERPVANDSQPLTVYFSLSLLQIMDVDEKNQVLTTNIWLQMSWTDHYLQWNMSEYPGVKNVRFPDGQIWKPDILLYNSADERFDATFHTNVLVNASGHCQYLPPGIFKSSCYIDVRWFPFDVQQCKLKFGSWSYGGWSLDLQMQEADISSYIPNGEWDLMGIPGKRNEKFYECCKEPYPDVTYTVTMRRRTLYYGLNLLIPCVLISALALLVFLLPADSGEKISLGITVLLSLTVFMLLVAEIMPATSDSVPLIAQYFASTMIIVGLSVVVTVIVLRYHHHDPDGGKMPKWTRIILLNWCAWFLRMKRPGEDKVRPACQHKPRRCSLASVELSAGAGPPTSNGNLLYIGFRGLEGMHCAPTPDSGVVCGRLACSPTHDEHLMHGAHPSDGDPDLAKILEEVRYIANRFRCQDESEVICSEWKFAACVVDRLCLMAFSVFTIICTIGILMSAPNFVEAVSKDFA

[4] = target: T1, Neuronal acetylcholine receptor subunit alpha-7; test: Potency against rat nicotinic acetylcholine alpha-7 subunit expressed in Xenopus oocytes as current activation; type: functional, cell-based, Oocyte

T1 sequence (Q05941 whole entry): as above

Structure (SMILES) | Ki [1] | Ki [2] | Imax [3] | EC50 [4]
O=C(Nc1ccc(Br)cc1)O[C@@H]1C2CCN(CC2)[C@@H]1Cc1ccsc1 | 0.534 µM | > 10 µM |  | 
O=S(=O)(Cc1ccccc1)N[C@@H]1C2CCN(CC2)[C@@H]1Cc1cccnc1 | 8.84 µM | > 10 µM |  | 
CSc1ccc(NC(=O)N[C@@H]2C3CCN(CC3)[C@@H]2Cc2cccnc2)cc1 | 0.006 µM | > 10 µM |  | 
O=C(Nc1ccc(Oc2ccccc2)cc1)O[C@@H]1C2CCN(CC2)[C@@H]1Cc1cccnc1 | 0.05 µM | > 10 µM |  | 
O=C(N[C@@H]1C2CCN(CC2)[C@@H]1Cc1cccnc1)c1csc(Br)c1 | 0.0004 µM | > 10 µM |  | 
O=C(Nc1cccc(C(F)(F)F)c1)N[C@@H]1C2CCN(CC2)[C@@H]1Cc1cccnc1 | 0.091 µM | > 10 µM |  | 
N#Cc1cccc(NC(=O)N[C@@H]2C3CCN(CC3)[C@@H]2Cc2cccnc2)c1 | 0.17 µM | > 10 µM |  | 
COc1cccc(NC(=O)N[C@@H]2C3CCN(CC3)[C@@H]2Cc2cccnc2)c1 | 0.043 µM | > 10 µM |  | 
O=C(Nc1cccc(Br)c1)N[C@@H]1C2CCN(CC2)[C@@H]1Cc1cccnc1 | 0.052 µM | > 10 µM |  | 
O=C(N[C@@H]1C2CCN(CC2)[C@@H]1Cc1cccnc1)c1ccc(Sc2ccccc2)cc1 |  | > 10 µM |  | 
COc1ccncc1C[C@@H]1[C@H](OC(=O)Nc2ccc(Br)cc2)C2CCN1CC2 | 0.029 µM | > 10 µM |  | 
Cn1cccc1C(=O)N[C@@H]1C2CCN(CC2)[C@@H]1Cc1cccnc1 | 0.155 µM | > 10 µM |  | 
O=C(Nc1ccc(Br)cc1)O[C@@H]1C2CCN(CC2)[C@@H]1Cn1ccnc1 | 0.01 µM | > 10 µM |  | 
O=C(N[C@@H]1C2CCN(CC2)[C@@H]1Cc1cccnc1)c1c[nH]c2ccccc12 | 0.008 µM | > 10 µM |  | 
COc1ccc(NC(=O)N[C@@H]2C3CCN(CC3)[C@@H]2Cc2cccnc2)c(OC)c1 | 0.031 µM | > 10 µM |  | 
O=C(Nc1ccc(F)cc1)O[C@@H]1C2CCN(CC2)[C@@H]1Cc1cccnc1 | 0.006 µM | > 10 µM |  | 
COc1ccc(NC(=O)O[C@@H]2C3CCN(CC3)[C@@H]2Cc2cccnc2)cc1 | 0.005 µM | > 10 µM | 0.19 | 0.3 µM
O=C(N[C@@H]1C2CCN(CC2)[C@@H]1Cc1cccnc1)c1cccc(Br)c1 | 0.064 µM | > 10 µM |  | 
O=C(Nc1ccc(Cl)c(Cl)c1)N[C@@H]1C2CCN(CC2)[C@@H]1Cc1cccnc1 | 0.034 µM | > 10 µM |  | 
O=C(Nc1cccc(F)c1)N[C@@H]1C2CCN(CC2)[C@@H]1Cc1cccnc1 | 0.006 µM | > 10 µM |  | 
O=C(N[C@@H]1C2CCN(CC2)[C@@H]1Cc1cccnc1)c1ccsc1 | 0.79 µM | > 10 µM |  | 

Structure (SMILES) | Ki [1] | Ki [2] | Imax [3] | EC50 [4]
O=C(Nc1ccc(Sc2ccccc2)cc1)OC1CN2CCC1CC2 (configuration not stated) | 0.053 µM | > 10 µM |  | 
COc1ccc(C[C@@H]2[C@H](OC(=O)Nc3ccc(Br)cc3)C3CCN2CC3)cc1 | > 10 µM | > 10 µM |  | 
O=C(Nc1ccccc1)O[C@@H]1C2CCN(CC2)[C@@H]1Cc1cccnc1 |  | > 10 µM |  | 
O=C(NC1CC1c1ccccc1)N[C@@H]1C2CCN(CC2)[C@@H]1Cc1cccnc1 (some centres not stated) |  | > 10 µM |  | 
O=C(Nc1ccc(-c2ccccc2)cc1)N[C@@H]1C2CCN(CC2)[C@@H]1Cc1cccnc1 | 0.424 µM | > 10 µM |  | 
O=C(NCc1ccccc1)O[C@@H]1C2CCN(CC2)[C@@H]1Cc1cccnc1 | 0.67 µM | > 10 µM |  | 
O=S(=O)(N[C@@H]1C2CCN(CC2)[C@@H]1Cc1cccnc1)c1ccccc1 | 0.418 µM | > 10 µM |  | 
O=C(Nc1ccc(-c2ccccc2)cc1)O[C@@H]1C2CCN(CC2)[C@@H]1Cc1cccnc1 | 0.5 µM | > 10 µM |  | 
O=C(Nc1ccc(Br)cc1)O[C@@H]1C2CCN(CC2)[C@@H]1Cc1ccco1 | 0.234 µM | > 10 µM |  | 
O=C(N[C@@H]1C2CCN(CC2)[C@@H]1Cc1cccnc1)c1cc2ccccc2o1 |  |  | 1 | 
C/C(=C\C(=O)N[C@@H]1C2CCN(CC2)[C@@H]1Cc1cccnc1)c1ccccc1 | 0.087 µM | > 10 µM |  | 
O=C(Nc1ccc(Sc2ccccc2)cc1)O[C@@H]1C2CCN(CC2)[C@@H]1Cc1cccnc1 | 0.009 µM | > 10 µM |  | 
NC(=O)Cc1ccc(S(=O)(=O)N[C@@H]2C3CCN(CC3)[C@@H]2Cc2cccnc2)cc1 | 0.146 µM | > 10 µM |  | 
O=C(Nc1ccccc1)OC1CN2CCC1CC2 (configuration not stated) |  | > 10 µM |  | 
O=C(Nc1ccc(Br)cc1)O[C@@H]1C2CCN(CC2)[C@@H]1Cc1cnc2ccccc2c1 | 10 µM | > 10 µM |  | 
O=C(Nc1ccc(Oc2ccccc2)cc1)N[C@@H]1C2CCN(CC2)[C@@H]1Cc1cccnc1 | 0.016 µM | > 10 µM |  | 
O=C(Nc1ccc(Br)cc1)O[C@@H]1C2CCN(CC2)[C@@H]1Cc1cccnc1 |  | > 10 µM |  | 
O=C(Nc1ccc(Br)cc1)O[C@@H]1C2CCN(CC2)[C@@H]1Cc1cncnc1 | 0.04 µM | > 10 µM |  | 
O=C(Nc1ccc(Br)cc1)N[C@@H]1C2CCN(CC2)[C@@H]1Cc1cccnc1 | 0.009 µM | > 10 µM |  | 
O=C(N[C@@H]1C2CCN(CC2)[C@@H]1Cc1cccnc1)c1ccc2ccccc2c1O | 0.001 µM | > 10 µM |  | 
O=C(Nc1ccc(Br)cc1)O[C@@H]1C2CCN(CC2)[C@@H]1Cc1ccc(F)cc1 | 0.263 µM | > 10 µM |  | 

Structure (SMILES) | Ki [1] | Ki [2] | Imax [3] | EC50 [4]
CN(C)c1ccc(NC(=O)N[C@@H]2C3CCN(CC3)[C@@H]2Cc2cccnc2)cc1 | 0.038 µM | > 10 µM |  | 
CC(C)Oc1cncc(C[C@@H]2[C@H](OC(=O)Nc3ccc(Br)cc3)C3CCN2CC3)c1 | 7.02 µM | > 10 µM |  | 
O=S(=O)(N[C@@H]1C2CCN(CC2)[C@@H]1Cc1cccnc1)c1ccc(Br)cc1 |  | > 10 µM |  | 
O=C(Nc1ccc(Br)cc1)O[C@@H]1C2CCN(CC2)[C@@H]1Cc1ccccc1 | 0.838 µM | > 10 µM |  | 
O=C(Nc1ccccc1)N[C@@H]1C2CCN(CC2)[C@@H]1Cc1cccnc1 | 0.016 µM | > 10 µM |  | 
O=C(Nc1ccc(Br)cc1)O[C@@H]1C2CCN(CC2)[C@@H]1Cc1ccccn1 | > 10 µM | > 10 µM |  | 
CS(=O)(=O)c1ccc(C[C@@H]2[C@H](OC(=O)Nc3ccc(Br)cc3)C3CCN2CC3)cc1 | 6.78 µM | > 10 µM |  | 
COc1ccc(S(=O)(=O)N[C@@H]2C3CCN(CC3)[C@@H]2Cc2cccnc2)cc1 | 8.92 µM | > 10 µM |  | 
CN(C)c1ccc(C[C@@H]2[C@H](OC(=O)Nc3ccc(Br)cc3)C3CCN2CC3)cc1 |  | > 10 µM |  | 
O=C(Nc1ccc(Br)cc1)OC1CN2CCC1CC2 (configuration not stated) |  | > 10 µM |  | 
C/C(=C\c1ccccc1)C(=O)N[C@@H]1C2CCN(CC2)[C@@H]1Cc1cccnc1 | 0.005 µM | > 10 µM |  | 
O=C(Nc1ccc(F)cc1)N[C@@H]1C2CCN(CC2)[C@@H]1Cc1cccnc1 | 0.074 µM | > 10 µM |  | 
O=C(Nc1ccc(Br)cc1)O[C@@H]1C2CCN(CC2)[C@@H]1Cc1cc2ccccc2o1 | 8.39 µM | > 10 µM |  | 
O=C(Nc1ccc(Br)cc1)O[C@@H]1C2CCN(CC2)[C@@H]1Cc1cnccc1Oc1ccccc1 | > 10 µM | > 10 µM |  | 
COc1ccccc1NC(=O)N[C@@H]1C2CCN(CC2)[C@@H]1Cc1cccnc1 | 0.03 µM | > 10 µM |  | 
O=C(NC1CC1c1ccccc1)O[C@@H]1C2CCN(CC2)[C@@H]1Cc1cccnc1 (some centres not stated) | 0.103 µM | > 10 µM |  | 
O=C(NCc1ccc(Br)cc1)N[C@@H]1C2CCN(CC2)[C@@H]1Cc1cccnc1 | 0.274 µM | > 10 µM |  | 
COc1ccc(NC(=O)N[C@@H]2C3CCN(CC3)[C@@H]2Cc2cccnc2)cc1 | 0.037 µM | > 10 µM |  | 
COc1cncc(C[C@@H]2[C@H](OC(=O)Nc3ccc(Br)cc3)C3CCN2CC3)c1 | 0.144 µM | > 10 µM |  | 
Cn1cc(C(=O)N[C@@H]2C3CCN(CC3)[C@@H]2Cc2cccnc2)c2ccccc21 | 0.521 µM | > 10 µM |  | 
